This assay has as its system weeds, including weed grasses. Briefly: herbicidal activity (general statement, no test described). Type of assay: in vivo. The conditions noted are these: in words; no rate or test printed.

With `Cn1c(C(F)(F)F)cc(=O)n(-c2cc(O)c(Cl)cc2F)c1=O` [3-(4-chloro-2-fluoro-5-hydroxyphenyl)-1-methyl-6-trifluoromethyl-2,4(1H,3H)-pyrimidinedione], the herbicidal activity entry is on record as “especially pronounced herbicidal activity”.

The record behind these values is patent US4859229A, “3-Aryluracils having an ether (thio) carbomyloxy or sulphomyloxy substituent on the aromatic moiety” (Hoffmann-La Roche Inc., priority 1986, dated 1989).
